Laboratory results published in patent US20230310388A1, “Methods and Compositions for Treating Fungal Infections” (Neoculi Pty Ltd, priority 2020, published 2023).
Converted amounts (≈) assume the structure as drawn. “And” between values parts separate entries of the source, which are not always exact repeats. Equal entries are not always repeated. One block for each compound: values may come before it.

Experiments:
[1] = test system: C. gattii; experiment: CLSI broth microdilution MIC (Example 6); format: cell-based, Cryptococcus gattii
Protocol: (§1) Antifungal minimum inhibitory concentration (MIC) testing was undertaken as recommended by the CLSI (1). Briefly, antifungal susceptibility tests were performed for amphotericin B, robenidine (NCL812) and 10 robenidine analogs (NCL023, NCL024, NCL097, NCL113, NCL115, NCL195, NCL219, NCL220, NCL259, NCL265) by standard broth microdilution method (CLSI) in RPMI 1640. Various concentrations (ranging from high to low) of the selected compounds were prepared in RPMI 1640 medium by double dilution in 96-well microtitre plates. Each well contained an inoculum of approximately 2×10^3 cells/mL. The wells without addition of drugs served as negative (no inoculum) and positive (inoculum only) growth controls. Microtitre plates were incubated at 35° C. for 24-48 hours. […] Antifungal MICs were determined for each isolate in duplicate; if the values obtained were different, the MIC test was repeated a third time.

[2] = test system: Candida albicans; experiment: CLSI broth microdilution MIC (Example 4); format: cell-based; conditions: for antifungal activity against the two isolates of Candida albicans: summary in words
How it was run: (§2)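 CLSI broth microdilution in RPMI 1640 with two-fold compound dilutions and inoculum about 2×10^3 cells/mL. Plates incubated 35° C for 24-48 hours; MICs determined in duplicate, with a third test when the duplicates differed.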

[3] = test system: Cryptococcus neoformans; experiment: CLSI broth microdilution MIC (Example 4); format: cell-based
How it was run: as §2

[4] = test system: Candida albicans; experiment: CLSI broth microdilution MIC (Example 3); format: cell-based
Protocol: as §1, with “the CLSI.” for “the CLSI (1).”, “and 5” for “and 10”, “analogs (NCL062,” for “analogs (NCL023, NCL024, NCL097, NCL113, NCL115,”, “NCL219,” for “NCL219, NCL220,”, “time. Antifungal susceptibility tests were performed for amphotericin B and NCL analogs by standard broth microdilution method (CLSI). Briefly, various concentrations (ranging from high to low) of the selected compounds were prepared in RPMI 1640 medium by double dilution in the 96-well plates. Each well contained an inoculum of approximately 2×10^3 cells/mL. The wells without addition of drugs served as a negative control. Micro plates were incubated at 35° C. for 48 hour and read spectrophotometrically at 600 nm, using a microplate reader (Multiskan-EX; Thermo Elect. Corp., USA).” for “time.”

[5] = test system: Candida parapsilosis; experiment: CLSI broth microdilution MIC (Example 3); format: cell-based; conditions: Candida parapsilosis ATCC 22019
Protocol: as §1, with “the CLSI.” for “the CLSI (1).”, “and 5” for “and 10”, “analogs (NCL062,” for “analogs (NCL023, NCL024, NCL097, NCL113, NCL115,”, “NCL219,” for “NCL219, NCL220,”, “time. Antifungal susceptibility tests were performed for amphotericin B and NCL analogs by standard broth microdilution method (CLSI). Briefly, various concentrations (ranging from high to low) of the selected compounds were prepared in RPMI 1640 medium by double dilution in the 96-well plates. Each well contained an inoculum of approximately 2×10^3 cells/mL. The wells without addition of drugs served as a negative control. Micro plates were incubated at 35° C. for 48 hour and read spectrophotometrically at 600 nm, using a microplate reader (Multiskan-EX; Thermo Elect. Corp., USA).” for “time.”

[6] = test system: Candida albicans; experiment: CLSI broth microdilution MIC (Example 6); format: cell-based
Protocol: as §1

[7] = test system: Cryptococcus neoformans; experiment: CLSI broth microdilution MIC (Example 6); format: cell-based
Protocol: as §1

[8] = test system: Candida albicans; experiment: CLSI broth microdilution MIC (Example 5); format: cell-based; conditions: for activity against one or more isolates of Cryptococcus neoformans and Candida albicans: summary in words
Protocol: as §1, with “CLSI.” for “CLSI (1).”, “and” for “and 10”, “(NCL23, NCL24, NCL97,” for “(NCL023, NCL024, NCL097,”

[9] = test system: Cryptococcus neoformans; experiment: CLSI broth microdilution MIC (Example 5); format: cell-based
Protocol: as §1, with “CLSI.” for “CLSI (1).”, “and” for “and 10”, “(NCL23, NCL24, NCL97,” for “(NCL023, NCL024, NCL097,”

[10] = test system: Candida albicans ATCC14053; experiment: Broth micro-dilution screen at 16 μg/mL and MIC (Example 9); format: cell-based; conditions: for MIC: C. albicans ATCC14053, test range 0.25-64 μg/mL, duplicate; for Screen at 16 μg/mL: single concentration 16 μg/mL, Growth or No growth of C. albicans ATCC14053
Protocol: The antifungal activity of 201 NCL analogs against Candida albicans ATCC14053 in vitro was investigated. A broth micro-dilution method was used, according to CLSI guidelines as described. NCL analogs were dissolved in DMSO and originally screened at a single concentration of 16 μg/mL.

[11] = test system: C. albicans; experiment: Fluconazole MIC given as descriptor of azole resistant clinical isolates (Table 10); format: cell-based; conditions: Candida albicans
[12] = human clinical isolate C. gatti 17-90232099
[13] = human clinical isolate C. gattii 16-90050373
[14] = human clinical isolate C. gattii 17-90028211
[15] = human clinical isolate C. gattii 17-90028217
[16] = human clinical isolate C. gattii 17-90028242
[17] = Candida albicans ATCC 90028, 1st
[18] = Candida albicans ATCC 90028, 2nd
[19] = human clinical isolate C. neoformans serotype A/D hybrid
[20] = human clinical isolate C. neoformans var grubii 16-90050434
[21] = human clinical isolate C. neoformans var grubii 17-90028233
[22] = human clinical isolate C. neoformans var grubii 17-93996464
[23] = human clinical isolate C. neoformans var grubii 17-93996964
[24] = clinical isolate C. albicans 12-93301752 Azole Resistant
[25] = clinical isolate C. albicans 14-90045999 Azole Resistant
[26] = clinical isolate C. albicans 15-45171061
[27] = clinical isolate C. albicans 15-91329871
[28] = clinical isolate C. albicans 16-24136919 Azole Resistant
[29] = clinical isolate C. albicans 16-46177400
[30] = clinical isolate C. albicans 16-90050810
[31] = clinical isolate C. albicans 16-90054237
[32] = clinical isolate C. albicans 18-144-00196
[33] = clinical isolate C. albicans 18-148-08188 Azole Resistant

MIC [1, 12]: 8 µg/mL (≈ 28.5 µM)
MIC [1, 13]: 8 µg/mL (≈ 28.5 µM)
MIC [1, 14]: 8 µg/mL and 16 µg/mL
MIC [1, 15]: 4 µg/mL (≈ 14.2 µM)
MIC [1, 16]: 8 µg/mL (≈ 28.5 µM)
MIC at 24-48 hours ([2]; Candida albicans ATCC 90028): 8 µg/mL (≈ 28.5 µM)
MIC at 24-48 hours ([2]; Candida albicans SA3): 8 µg/mL (≈ 28.5 µM)
MIC at 24-48 hours ([3]; Cryptococcus neoformans SA1): 1 µg/mL (≈ 3.56 µM)
MIC at 24-48 hours ([3]; Cryptococcus neoformans SA2): 1 µg/mL (≈ 3.56 µM)
MIC [4, 17]: 2 µg/mL (≈ 7.12 µM)
MIC [4, 18]: 2 µg/mL (≈ 7.12 µM)
MIC ([4]; Candida albicans, 1st): 2 µg/mL (≈ 7.12 µM)
MIC ([4]; Candida albicans, 2nd): 4 µg/mL (≈ 14.2 µM)
MIC ([5]; 1st): 2 µg/mL (≈ 7.12 µM)
MIC ([5]; 2nd): 2 µg/mL (≈ 7.12 µM)
MIC ([6]; C. albicans SA3): 8 µg/mL (≈ 28.5 µM)
MIC ([6]; Candida albicans ATCC 90028): 8 µg/mL (≈ 28.5 µM)
MIC ([7]; Cryptococcus neoformans SA1): 1 µg/mL (≈ 3.56 µM)
MIC ([7]; Cryptococcus neoformans SA2): 1 µg/mL (≈ 3.56 µM)
MIC [7, 19]: 8 µg/mL (≈ 28.5 µM)
MIC [7, 20]: 4 µg/mL (≈ 14.2 µM)
MIC [7, 21]: 8 µg/mL (≈ 28.5 µM)
MIC [7, 22]: 8 µg/mL (≈ 28.5 µM)
MIC [7, 23]: 8 µg/mL (≈ 28.5 µM)
MIC ([8]; C. albicans SA3): 8 µg/mL (≈ 28.5 µM)
MIC ([8]; Candida albicans ATCC 90028): 8 µg/mL (≈ 28.5 µM)
MIC [8, 24]: 2 µg/mL (≈ 7.12 µM)
MIC [8, 25]: 16 µg/mL (≈ 57 µM)
MIC [8, 26]: 8 µg/mL (≈ 28.5 µM)
MIC [8, 27]: 16 µg/mL (≈ 57 µM)
MIC [8, 28]: 4 µg/mL (≈ 14.2 µM)
MIC [8, 29]: 16 µg/mL (≈ 57 µM)
MIC [8, 30]: 16 µg/mL (≈ 57 µM)
MIC [8, 31]: 16 µg/mL (≈ 57 µM)
MIC [8, 32]: >16 µg/mL
MIC [8, 33]: 16 µg/mL (≈ 57 µM)
MIC ([9]; Cryptococcus neoformans SA1): 1 µg/mL (≈ 3.56 µM)
MIC ([9]; Cryptococcus neoformans SA2): 1 µg/mL (≈ 3.56 µM)
MIC [10]: 2 µg/mL (≈ 7.12 µM)
SMILES: [H]/N=C(\N)NN=C(CCCCCC)c1ccc(Cl)cc1 [NCL265]
antifungal activity against the two isolates of Candida albicans [2]: high antifungal activity
activity against one or more isolates of Cryptococcus neoformans and Candida albicans [8]: highly active
Screen at 16 μg/mL [10]: No growth

MIC ([11]; C. albicans 12-93301752 Azole Resistant): 32 µg/mL (≈ 104 µM)
MIC ([11]; C. albicans 14-90045999 Azole Resistant): 64 µg/mL (≈ 209 µM)
MIC ([11]; C. albicans 16-24136919 Azole Resistant): 256 µg/mL (≈ 836 µM)
MIC ([11]; C. albicans 18-148-08188 Azole Resistant): 8 µg/mL (≈ 26.1 µM)
SMILES: OC(Cn1cncn1)(Cn1cncn1)c1ccc(F)cc1F [Fluconazole]

MIC [1, 12]: 8 µg/mL (≈ 27.3 µM)
MIC [1, 13]: 8 µg/mL (≈ 27.3 µM)
MIC [1, 14]: 8 µg/mL (≈ 27.3 µM)
MIC [1, 15]: 8 µg/mL and 16 µg/mL
MIC [1, 16]: 8 µg/mL (≈ 27.3 µM)
MIC at 24-48 hours ([2]; Candida albicans ATCC 90028): 16 µg/mL (≈ 54.6 µM)
MIC at 24-48 hours ([2]; Candida albicans SA3): 16 µg/mL (≈ 54.6 µM)
MIC at 24-48 hours ([3]; Cryptococcus neoformans SA1): 2 µg/mL (≈ 6.83 µM)
MIC at 24-48 hours ([3]; Cryptococcus neoformans SA2): 2 µg/mL (≈ 6.83 µM)
MIC [4, 17]: 4 µg/mL (≈ 13.7 µM)
MIC [4, 18]: 8 µg/mL (≈ 27.3 µM)
MIC ([4]; Candida albicans, 1st): 4 µg/mL (≈ 13.7 µM)
MIC ([4]; Candida albicans, 2nd): 4 µg/mL (≈ 13.7 µM)
MIC ([5]; 1st): 4 µg/mL (≈ 13.7 µM)
MIC ([5]; 2nd): 4 µg/mL (≈ 13.7 µM)
MIC ([6]; C. albicans SA3): 16 µg/mL (≈ 54.6 µM)
MIC ([6]; Candida albicans ATCC 90028): 16 µg/mL (≈ 54.6 µM)
MIC ([7]; Cryptococcus neoformans SA1): 2 µg/mL (≈ 6.83 µM)
MIC ([7]; Cryptococcus neoformans SA2): 2 µg/mL (≈ 6.83 µM)
MIC [7, 19]: 8 µg/mL (≈ 27.3 µM)
MIC [7, 20]: 8 µg/mL (≈ 27.3 µM)
MIC [7, 21]: 8 µg/mL (≈ 27.3 µM)
MIC [7, 22]: 8 µg/mL and 16 µg/mL
MIC [7, 23]: 8 µg/mL (≈ 27.3 µM)
MIC ([8]; C. albicans SA3): 16 µg/mL (≈ 54.6 µM)
MIC ([8]; Candida albicans ATCC 90028): 16 µg/mL (≈ 54.6 µM)
MIC [8, 24]: 16 µg/mL (≈ 54.6 µM)
MIC [8, 25]: >16 µg/mL
MIC [8, 26]: 8 µg/mL (≈ 27.3 µM)
MIC [8, 27]: >16 µg/mL
MIC [8, 28]: 8 µg/mL (≈ 27.3 µM)
MIC [8, 29]: >16 µg/mL
MIC [8, 30]: >16 µg/mL
MIC [8, 31]: 32 µg/mL (≈ 109 µM)
MIC [8, 32]: >16 µg/mL
MIC [8, 33]: >16 µg/mL
MIC ([9]; Cryptococcus neoformans SA1): 2 µg/mL (≈ 6.83 µM)
MIC ([9]; Cryptococcus neoformans SA2): 2 µg/mL (≈ 6.83 µM)
MIC [10]: 8 µg/mL and 16 µg/mL
SMILES: [H]/N=C(\N)NN=C(CC1CCCCC1)c1ccc(Cl)cc1 [NCL259]
antifungal activity against the two isolates of Candida albicans [2]: high antifungal activity
activity against one or more isolates of Cryptococcus neoformans and Candida albicans [8]: highly active
Screen at 16 μg/mL [10]: No growth
